Source: ChEMBL document CHEMBL1201862, “PubChem BioAssay data set” (2004)
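Step 1: Grow cells in 96-well plates. Step 2: Expose to compound for 48 hours at 5 concentrations. Step 3: Interpolate endpoints linearly; if unreached, use highest concentration. GI50 is the concentration that inhibits growth by half.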 The source made the active and inactive calls. Cut-off read from the data, not from the text of the source: active = GI50 up to about 1.1 µM and inactive = higher.

What was measured:
Assay in all cases: NCI-60 cell line screen, 48 h
NCI-H226 = system: NCI-H226
MDA-MB-435 = system: MDA-MB-435
SF-295 = system: SF-295
RXF 393 = system: RXF 393
U-251 = system: U-251
MCF7 = system: MCF7
SN12C = system: SN12C
OVCAR-5 = system: OVCAR-5
CAKI-1 = system: CAKI-1
M14 = system: M14
SK-MEL-28 = system: SK-MEL-28
MDA-MB-231 = system: MDA-MB-231
786-0 = system: 786-0
LOX IMVI = system: LOX IMVI
DU-145 = system: DU-145
TK-10 = system: TK-10
SF-268 = system: SF-268
CCRF-CEM = system: CCRF-CEM
NCI-H522 = system: NCI-H522
RPMI-8226 = system: RPMI-8226

Row | SMILES | GI50 (NCI-H226) | GI50 (MDA-MB-435) | GI50 (SF-295) | GI50 (RXF 393) | GI50 (U-251) | GI50 (MCF7) | GI50 (SN12C) | GI50 (OVCAR-5) | GI50 (CAKI-1) | GI50 (M14) | GI50 (SK-MEL-28) | GI50 (MDA-MB-231) | GI50 (786-0) | GI50 (LOX IMVI) | GI50 (DU-145) | GI50 (TK-10) | GI50 (SF-268) | GI50 (CCRF-CEM) | GI50 (NCI-H522) | GI50 (RPMI-8226)
1 | CC1=C(C(=O)NNC(=O)Cc2ccccc2)CC(C(=O)NNC(=O)Cc2ccccc2)=C(C)N1 | > 100 µM (inactive) | 89.1 µM (inactive) | > 100 µM (inactive) | 47.8 µM (inactive) | > 100 µM (inactive) | > 100 µM (inactive) | > 100 µM (inactive) | > 100 µM (inactive) | > 100 µM (inactive) | > 100 µM (inactive) | > 100 µM (inactive) | > 100 µM (inactive) | > 100 µM (inactive) | 80 µM (inactive) | > 100 µM (inactive) | > 100 µM (inactive) | > 100 µM (inactive) |  |  | 
2 | C=CC1CN(C(=O)OCC)N(C(=O)OCC)C1CCc1ccccc1 (stereo unspecified) | > 100 µM (inactive) | > 100 µM (inactive) | 58.6 µM (inactive) |  | > 100 µM (inactive) | 42.2 µM (inactive) | > 100 µM (inactive) | > 100 µM (inactive) | > 100 µM (inactive) | > 100 µM (inactive) | > 100 µM (inactive) | > 100 µM (inactive) | > 100 µM (inactive) | > 100 µM (inactive) | > 100 µM (inactive) | > 100 µM (inactive) | > 100 µM (inactive) | 72.4 µM (inactive) | 39.3 µM (inactive) | 30.9 µM (inactive)
3 | COc1cc2c3cc1Oc1c(OC)c(OC)cc4c1C(Cc1ccc(O)c(c1)-c1cc(ccc1OC)CC3N(C)CC2)N(C)CC4 (stereo unspecified) | 40.6 µM (inactive) | 23.6 µM (inactive) | 16.5 µM (inactive) | 1.96 µM (inactive) | 28.1 µM (inactive) | 16.5 µM (inactive) | 15.6 µM (inactive) | 44.8 µM (inactive) | 16.4 µM (inactive) | 3.18 µM (inactive) | 27 µM (inactive) | 13.3 µM (inactive) | 29 µM (inactive) | 4.8 µM (inactive) | 50.8 µM (inactive) | 32.9 µM (inactive) | 19.1 µM (inactive) |  | 11.5 µM (inactive) | 
4 | O=S(=O)(c1ccccc1)n1c(C(O)c2ccncc2)cc2ccccc21 (stereo unspecified) | 27 µM (inactive) | 36.3 µM (inactive) | 48.5 µM (inactive) | 48.2 µM (inactive) | 41 µM (inactive) | 20.9 µM (inactive) | > 100 µM (inactive) | > 100 µM (inactive) | 58.9 µM (inactive) | 32.7 µM (inactive) | 55.1 µM (inactive) | 74.6 µM (inactive) | 68.5 µM (inactive) | 40.3 µM (inactive) | 40.5 µM (inactive) | 28.4 µM (inactive) |  | 35.6 µM (inactive) |  | 27.1 µM (inactive)
5 | CN(CCN1CCCC1)C1CCc2cc(Cl)c(Cl)cc2C1 (stereo unspecified) | 16.2 µM (inactive) | 14.4 µM (inactive) | 15.7 µM (inactive) |  | 16.1 µM (inactive) | 14.8 µM (inactive) | 15.5 µM (inactive) | 15.3 µM (inactive) | 17.3 µM (inactive) | 15 µM (inactive) | 18.5 µM (inactive) | 17.6 µM (inactive) | 14.7 µM (inactive) | 15.1 µM (inactive) | 13.2 µM (inactive) | 17.1 µM (inactive) | 17.1 µM (inactive) | 26.4 µM (inactive) | 17.2 µM (inactive) | 17.2 µM (inactive)
6 | C=CCCC1(CC(Sc2ccccc2)P(=O)(c2ccccc2)c2ccccc2)OCCO1 (stereo unspecified) | > 10 µM (inactive) | > 10 µM (inactive) | > 10 µM (inactive) | > 10 µM (inactive) | > 10 µM (inactive) | > 10 µM (inactive) | > 10 µM (inactive) | > 10 µM (inactive) | > 10 µM (inactive) | > 10 µM (inactive) | > 10 µM (inactive) | > 10 µM (inactive) | > 10 µM (inactive) | > 10 µM (inactive) | > 10 µM (inactive) | > 10 µM (inactive) | > 10 µM (inactive) | > 10 µM (inactive) |  | > 10 µM (inactive)
7 | Cn1c(=O)c2c(nc3sc4ccccc4c(=O)n32)n(C)c1=O | > 100 µM (inactive) | > 100 µM (inactive) | > 100 µM (inactive) | > 100 µM (inactive) | > 100 µM (inactive) | > 100 µM (inactive) | > 100 µM (inactive) | > 100 µM (inactive) | > 100 µM (inactive) | > 100 µM (inactive) | > 100 µM (inactive) | > 100 µM (inactive) | > 100 µM (inactive) | > 100 µM (inactive) | > 100 µM (inactive) | > 100 µM (inactive) | > 100 µM (inactive) |  |  | > 100 µM (inactive)
8 | O=C(O)c1cc2c(cc1S(=O)(=O)O)C1C(C3C2C2(Cl)C(Cl)=C(Cl)C3(Cl)C2(Cl)Cl)C2(Cl)C(Cl)=C(Cl)C1(Cl)C2(Cl)Cl (stereo unspecified) | 23.4 µM (inactive) | 41.9 µM (inactive) | 23.2 µM (inactive) | 29.2 µM (inactive) | 38.3 µM (inactive) | 34.8 µM (inactive) | 8.71 µM (inactive) | 23.3 µM (inactive) | > 100 µM (inactive) | 37.3 µM (inactive) | 37.1 µM (inactive) | 24.4 µM (inactive) | 39.8 µM (inactive) |  | 48.1 µM (inactive) | > 100 µM (inactive) | 58.7 µM (inactive) | 0.173 µM (active) | 17.7 µM (inactive) | 32.6 µM (inactive)
9 | CC(C)Oc1ccc2c(c1)OCC1Cc3ccccc3OC21 (stereo unspecified) | > 100 µM (inactive) | 63.2 µM (inactive) | 63.2 µM (inactive) |  | > 100 µM (inactive) | 46.8 µM (inactive) | > 100 µM (inactive) | > 100 µM (inactive) | > 100 µM (inactive) | > 100 µM (inactive) |  | > 100 µM (inactive) | > 100 µM (inactive) | > 100 µM (inactive) | > 100 µM (inactive) | 51.3 µM (inactive) | > 100 µM (inactive) | > 100 µM (inactive) | 79.1 µM (inactive) | 52.8 µM (inactive)
10 | CCOC(=O)C1(NC(=O)OC(C)(C)C)CCc2[nH]oc(=O)c2C1 (stereo unspecified) | > 100 µM (inactive) | > 100 µM (inactive) | > 100 µM (inactive) |  | > 100 µM (inactive) | > 100 µM (inactive) | > 100 µM (inactive) | > 100 µM (inactive) | > 100 µM (inactive) | > 100 µM (inactive) | > 100 µM (inactive) | > 100 µM (inactive) | > 100 µM (inactive) | > 100 µM (inactive) | > 100 µM (inactive) | > 100 µM (inactive) |  | > 100 µM (inactive) | > 100 µM (inactive) | > 100 µM (inactive)
11 | O=C1c2ccccc2C(=O)c2c(NC(=O)c3ccc4c5c(ncnc35)-c3ccccc3C4=O)cccc21 | > 100 µM (inactive) | > 100 µM (inactive) | 23.4 µM (inactive) | 22.6 µM (inactive) | 31 µM (inactive) | > 100 µM (inactive) | > 100 µM (inactive) | > 100 µM (inactive) | > 100 µM (inactive) | > 100 µM (inactive) | > 100 µM (inactive) | 32.4 µM (inactive) | 25.1 µM (inactive) |  | > 100 µM (inactive) | 21.8 µM (inactive) | 97.5 µM (inactive) |  | > 100 µM (inactive) | > 100 µM (inactive)
12 | Cc1cn([C@H]2C[C@H](O)[C@@H](CO)O2)c(=O)nc1N | > 100 µM (inactive) | > 100 µM (inactive) | > 100 µM (inactive) |  | > 100 µM (inactive) | > 100 µM (inactive) | > 100 µM (inactive) | > 100 µM (inactive) | > 100 µM (inactive) | > 100 µM (inactive) | > 100 µM (inactive) | > 100 µM (inactive) | > 100 µM (inactive) | > 100 µM (inactive) | > 100 µM (inactive) | > 100 µM (inactive) | > 100 µM (inactive) | > 100 µM (inactive) | > 100 µM (inactive) | > 100 µM (inactive)
13 | COc1ccc2c(c1)[nH]c1c3ccc(OC)cc3oc(=O)c21 | > 100 µM (inactive) | 0.91 µM (active) | > 100 µM (inactive) | > 100 µM (inactive) | > 100 µM (inactive) | 5.73 µM (inactive) | > 100 µM (inactive) | > 100 µM (inactive) | > 100 µM (inactive) | > 100 µM (inactive) | > 100 µM (inactive) | 92 µM (inactive) | 0.432 µM (active) | > 100 µM (inactive) | > 100 µM (inactive) | > 100 µM (inactive) | > 100 µM (inactive) | > 100 µM (inactive) |  | 60.7 µM (inactive)
14 | COc1ccc(/C=C2\C(=O)N(C3OC(COC(C)=O)C(OC(C)=O)C(OC(C)=O)C3OC(C)=O)c3ccccc3N=C2N)cc1 (stereo unspecified) |  | 4.65 µM (inactive) | 21.9 µM (inactive) | 21.8 µM (inactive) | 27.1 µM (inactive) | 19.1 µM (inactive) | 36.9 µM (inactive) | 33.9 µM (inactive) | 31.4 µM (inactive) | 20.7 µM (inactive) | 23.9 µM (inactive) | 43.5 µM (inactive) | 17.5 µM (inactive) | 24.5 µM (inactive) | 25.7 µM (inactive) | 34 µM (inactive) | 32.5 µM (inactive) | 16.8 µM (inactive) |  | 16 µM (inactive)
15 | CCC(C)N1CN(c2ccccc2)C2(CCN(CCCC(=O)c3ccc(F)cc3)CC2)C1=O (stereo unspecified) |  | 13.9 µM (inactive) | 4.55 µM (inactive) | 14.2 µM (inactive) | 4.47 µM (inactive) | 0.381 µM (active) | 3.88 µM (inactive) | 0.839 µM (active) | 2.25 µM (inactive) | 14.3 µM (inactive) | 17.4 µM (inactive) | 10.8 µM (inactive) | > 100 µM (inactive) | 2.74 µM (inactive) | 0.927 µM (active) | 4.85 µM (inactive) | 6.7 µM (inactive) | 0.64 µM (active) | 7.85 µM (inactive) | 5.52 µM (inactive)
